# “Also recorded” adds a separate entry of the source.
# Legend:
# rat cornea = assay: Rat cornea pocket angiogenesis assay (growth factor pellets); assay type: in vivo; settings: for angiogenic response to growth factor alone: 250 ng growth factor per pellet
# Procedure: (i) Preparation of sustained-release polymer: Sustained-release polymer pellets were prepared by making a 1:1 mix of a 12% solution in ethanol of the polymer (Hydron polyhydroxyethylmethacrylate), with saline containing the growth factors. The growth factors bFGF, VEGF, and EGF were dissolved at a concentration of 125 ng/μl. […] 2 μl of these solutions were added to each pellet. Thus, a pellet containing 250 ng of a single growth factor was implanted at random in the right or left eye. The other eye was implanted with a pellet containing the same dose of growth factor+HET0016. In some rats the pellet contained VEGF alone and VEGF+DDMS. 20 μg of the stable 20-HETE agonist analog WIT003 was implanted in one eye to determine whether it induces angiogenesis. […] 9 μl of the 1:1 Hydron/treatment mixture was placed on the ends of 1.5-cm rods. Each pellet contained 250 ng of its respective growth factor. For bFGF we used sucralfate to stabilize and allow sustained release of this growth factor (Volkin D B et al., Biochim Biophys Acta 1993, 1203:18-26). After drying the pellets for 1 hour, they were ready to be implanted into the cornea of rats.
# (ii) Pellet implantation: The rats were anesthetized IM with ketamine (80 mg/kg) and xylazine (10 mg/kg). The eyes were topically anesthetized with 0.5% proparacaine (Ophthetic, Alcon, Tex.) and the globes proptosed with a jeweler's forceps. Using an operating microscope, a central intrastromal linear keratotomy, approximately 1.5 mm in length, was performed with a surgical blade (Bard-Parker #11; Becton Dickinson, Franklin Lake, N.Y.) parallel to the insertion of the lateral rectus muscle. A curved iris spatula (No. 10093-13, Fine Science Tools, Belmont, Calif.) approximately 1.5 mm wide and 5 mm long was inserted under the lip of the incision and gently pushed through the stroma toward the temporal limbus of the eye. The distance between the limbus and the base of the pocket was kept at 1.0±0.1 mm. The pellet was advanced to the temporal end of the pocket. Antibiotic ointment (erythromycin) was applied to the anterior surface of the eye.
# (iv) Quantitation of corneal neovascularization: Seven days after pellet implantation, the rats were deeply anesthetized as previously described with ketamine and xylazine. The left ventricle was cannulated and the animal was perfused with 20-25 ml saline through the left ventricle followed by 20-25 ml India ink (waterproof drawing ink, Sanford, Bellwood, Ill.). The eyes were marked for orientation, enucleated and placed in 4% formalin for 24 hours. The cornea was dissected free from the surrounding globe and underlying iris, bisected, and loosely mounted between two glass slides, thus gently flattening the cornea. These flat mounts were examined microscopically using a Nikon Diaphot Epi-fluor 2 microscope attached to a CCD video camera and the images were digitized and saved using a computer.
# Neovascularization was determined by comparing total vessel length in the control and experimental eyes. Vessel length was determined by tracing each vessel from the limbus to the pellet. Total length is the sum of these values in pixels and was determined using conventional image analysis software (Sigma Scan Pro, SPSS, Chicago, Ill.)
# HUVECs = HUVECs proliferation assay (CellTiter96 AQueous One); assay type: cell-based, human
# Procedure: HUVECs were seeded onto a 96-well plate at 1×10^4 cells/well. […] Organic solvent concentration never exceeded 0.1% of total culture volume. […] 20 μl of Aqueous One reagent was added to the 100 μl medium in each well. The plates were incubated for 2 hours at 37° C. in a humidified incubator. Absorbance was recorded at 490 nm using a 96-well Bio Kinetics Reader EL340 (Bio-TEK, Winooski, Vt.). The data represent changes in percent absorbance of treated cultures compared with control cells. Three different experiments were carried out, and each point was determined in triplicate.
# 9L rat gliosarcoma cells = assay: 9L cell proliferation assay (cell counting); assay type: cell-based
# Procedure: (§1) Culture Conditions: 9L rat gliosarcoma cells were purchased from ATC (Gaithersburg, Md.) and were maintained in DMEM (Invitrogen) supplemented with 10% heat-inactivated fetal bovine serum (FBS), penicillin (10 IU/ml), streptomycin (10 μg/ml) and 10% non-essential amino acids (all purchased from Invitrogen). Cells were maintained at 37° C. in a humidified incubator containing 5% CO2. They were grown in medium containing 10% FBS, which was then replaced with serum-free medium (give type and source) where 9L cells grow exponentially.
# Cell Proliferation Assays: Proliferation studies were performed with cultures plated at a density that ensured exponential growth for at least 5 days. Growth medium were generally replaced by serum free medium 24 hr after plating. […] The concentration of the ethanol added to the media never exceeded 0.1%. Cells were harvested by exposure to a solution of 0.05% Trypsin/EDTA and counted using a hemocytometer.
# U251 human glioma cells = assay: U251 cell proliferation assay (cell counting); assay type: cell-based; settings: for increase of U251 cell proliferation: 1 μM agonist, 48 hr, serum-starved
# Procedure: as §1, with “Cells” for “9L rat gliosarcoma cells”, “routinely” for “purchased from ATC (Gaithersburg, Md.) and were”, “medium” for “medium (give type and source)”, “U251” for “9L”, “exponentially. Treatments were initiated one day after serum removal.” for “exponentially.”
# Cell Proliferation Assays: Proliferation studies were performed with cultures plated at a density that ensured exponential growth for at least 5 days. Growth medium was generally replaced by serum-free medium 24 hr after plating. Cells were treated with various concentrations of a given compounds for 24 or 48 hr as described in the Methods. […] Organic solvent never exceeded 0.1% of total culture volume. Cells were harvested by exposure to 0.05% trypsin/EDTA and counted using a hemocytometer.
# 20-HETE = settings: cited from earlier work
# [1] = up to 40 μg palmitic acid per pellet
molecule,measurement,setting,value
VEGF,angiogenic response to growth factor alone,rat cornea,marked neovascularization response; also recorded: Vigorous angiogenic responses
same,effect on proliferation of HUVECs,HUVECs; 250 ng/ml VEGF alone,stimulated proliferation
"O=C(O)CCCC/C=C\CCCCCCC/C=C\CCCCO [WIT003, 20-hydroxyeicosa-6(Z),15(Z)-dienoic acid]",angiogenic response to the 20-HETE analog alone,"rat cornea; 20 μg WIT003 per pellet, 7 days",induced an angiogenic response
same,effect on proliferation of HUVECs,"HUVECs; 1 μM WIT003, 48 hours",increased the proliferation rate; also recorded: increased proliferation of the cells
same,stimulation of 9L proliferation compared with EGF,9L rat gliosarcoma cells; 1 μM WIT003,A similar degree of stimulation
same,rescue of 9L cells from the inhibitory actions of HET0016,9L rat gliosarcoma cells; 1 μM WIT003 + 10 μM HET0016,partially rescued
same,stimulatory effect on proliferation of U251 cells,"U251 human glioma cells; 0.1 μM WIT003, 48 hr",has no more stimulatory effect on proliferation of U251 cells than 50 ng/ml EGF
same,rescue of U251 cells from the anti-proliferative effects of HET0016,"U251 human glioma cells; 1 μM WIT003 + 10 μM HET0016, 48 h",reverses the effects of HET0016; also recorded: can rescue
same,"U251 proliferation with WIT003 and HET0016, increase above HET0016 alone","U251 human glioma cells; 1 μM WIT003 + 10 μM HET0016, 2 days",about 70%
same,U251 growth stimulation compared with EGF,"U251 human glioma cells; 1 μM WIT003, 48 h",comparable to the growth stimulating effect induced by 200 ng/ml EGF; also recorded: as much as 200 ng/ml EGF
same,increase of U251 cell proliferation,U251 human glioma cells,20%
"bFGF: basic fibroblast growth factor, purchased from R&D Systems",angiogenic response to growth factor alone,rat cornea,Vigorous angiogenic responses
CCCCCCCCCCCCCCCC(=O)O [palmitic acid],angiogenic effect of fatty acid control alone,rat cornea; [1],had no effect by itself
same,influence of fatty acid control on angiogenic responses to VEGF,rat cornea; [1],no difference in angiogenic responses to VEGF
same,influence of fatty acid control on angiogenic responses to VEGF,"rat cornea; up to 40 μg palmitic acid per pellet, listed as Palmitic acid",showed no ability to influence angiogenic responses to VEGF
"C#CCCCCCCCCCCCCCCCC(=O)O [17-ODYA, 17-Octadecynoic acid]",ability to reduce 20-HETE levels in vivo,20-HETE,reduce 20-HETE levels in vivo
"EGF: epidermal growth factor, positive control for proliferation",angiogenic response to growth factor alone,rat cornea,Vigorous angiogenic responses
same,increase of proliferation of 9L cells,9L rat gliosarcoma cells; EGF 200 ng/ml,about 30%
same,effect on number of 9L cells,"9L rat gliosarcoma cells; EGF 200 ng/ml, 24 and 48 hrs",increased the number of cells
"O=C(O)CCC/C=C\CCCCCCC/C=C\CCCCCO [20-hydroxyeicosa-5(Z),14(Z)-dienoic acid]",reversal of HET0016 blockade of U251 cell proliferation,U251 human glioma cells; 1 μM 20-HETE agonist + HET0016,about 70%
same,increase of U251 cell proliferation,U251 human glioma cells,about 20%

# From patent publication US20050124618A1, “Methods of modulating angiogenesis and cancer cell proliferation” (priority 2003, published 2005)
